According to paper PMC6628712 (Journal of enzyme inhibition and medicinal chemistry, 2016):
Read-outs that look alike come from different tables or passages of the source.

How the values were obtained:
[1] = unbound fraction in plasma; ref [64]–[73]; cited from earlier work
[2] = human, in vivo
[3] = total plasma, clinically relevant dose as in column Oral Dose; ref [64]–[73]; cited from earlier work
CYP2C8 = biological target: T1, CYP2C8 (Homo sapiens, UniProt P10632); conditions: read-out: CYP2C8 IC50, cited from earlier work
T1 sequence (P10632 1-490): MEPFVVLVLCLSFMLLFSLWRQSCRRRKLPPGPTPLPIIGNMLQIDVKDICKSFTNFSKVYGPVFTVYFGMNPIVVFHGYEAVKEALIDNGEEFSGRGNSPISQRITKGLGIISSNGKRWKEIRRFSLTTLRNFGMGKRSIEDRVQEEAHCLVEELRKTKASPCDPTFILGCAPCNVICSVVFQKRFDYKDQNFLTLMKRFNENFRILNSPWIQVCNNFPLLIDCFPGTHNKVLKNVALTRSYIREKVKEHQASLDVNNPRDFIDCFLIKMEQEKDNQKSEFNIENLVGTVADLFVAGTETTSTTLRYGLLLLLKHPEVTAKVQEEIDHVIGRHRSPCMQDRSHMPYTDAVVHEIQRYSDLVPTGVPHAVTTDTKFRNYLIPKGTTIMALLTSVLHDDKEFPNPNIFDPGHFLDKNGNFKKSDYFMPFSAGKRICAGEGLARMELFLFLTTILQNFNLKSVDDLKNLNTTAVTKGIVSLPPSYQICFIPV

CYP26A1 [4] = biological target: T2, CYP26A1 (Homo sapiens, UniProt O43174); assay: Inhibition of CYP26A1-catalyzed tazarotenic acid sulfoxide formation; format: biochemical
T2 sequence (O43174 1-497): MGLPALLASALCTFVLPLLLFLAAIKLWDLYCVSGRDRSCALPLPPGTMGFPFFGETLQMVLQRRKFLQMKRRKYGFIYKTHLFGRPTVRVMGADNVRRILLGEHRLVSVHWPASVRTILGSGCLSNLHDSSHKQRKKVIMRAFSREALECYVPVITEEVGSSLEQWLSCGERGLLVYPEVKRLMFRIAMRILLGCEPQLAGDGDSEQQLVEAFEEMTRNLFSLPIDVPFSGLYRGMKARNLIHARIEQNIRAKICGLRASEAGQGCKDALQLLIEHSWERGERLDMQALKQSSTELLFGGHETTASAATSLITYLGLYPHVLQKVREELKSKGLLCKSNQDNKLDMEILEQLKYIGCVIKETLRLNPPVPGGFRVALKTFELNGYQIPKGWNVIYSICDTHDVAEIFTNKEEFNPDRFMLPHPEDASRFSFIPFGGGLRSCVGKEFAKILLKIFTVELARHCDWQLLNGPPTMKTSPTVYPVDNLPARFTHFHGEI

CYP26B1 = biological target: T3, CYP26B1 (Homo sapiens, UniProt Q9NR63); assay: Inhibition of CYP26B1-catalyzed tazarotenic acid sulfoxide formation; format: biochemical; conditions: recombinant CYP26B1, probe tazarotenic acid sulfoxide formation, ± standard error
T3 sequence (Q9NR63 1-512): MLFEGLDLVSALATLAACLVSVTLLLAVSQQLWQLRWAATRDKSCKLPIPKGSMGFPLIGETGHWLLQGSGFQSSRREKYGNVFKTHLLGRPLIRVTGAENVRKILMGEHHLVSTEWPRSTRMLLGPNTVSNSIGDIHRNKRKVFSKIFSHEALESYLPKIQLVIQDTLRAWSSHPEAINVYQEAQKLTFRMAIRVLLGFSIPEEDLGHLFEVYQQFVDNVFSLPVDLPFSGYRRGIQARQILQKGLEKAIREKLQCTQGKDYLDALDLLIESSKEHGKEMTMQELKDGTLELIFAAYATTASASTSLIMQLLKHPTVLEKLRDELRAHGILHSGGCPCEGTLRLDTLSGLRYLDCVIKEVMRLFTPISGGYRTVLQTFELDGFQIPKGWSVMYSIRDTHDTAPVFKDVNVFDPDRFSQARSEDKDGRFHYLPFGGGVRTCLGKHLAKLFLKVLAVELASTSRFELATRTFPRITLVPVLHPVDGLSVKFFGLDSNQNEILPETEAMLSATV

[5] = patient with acute promyelocytic leukemia, co-administration of oral fluconazole; ref [102]; cited from earlier work
CYP26A1 [6] = conditions: in vitro; ref [97]; cited from earlier work
CYP26A1 [7] = biological target: T2, CYP26A1; assay: Spectral binding determination, CYP26A1; conditions: UV-difference spectra
[8] = substrate amodiaquine, ref [51]
[9] = read-out: CYP26A1 IC50, tazarotenic acid, recombinant CYP26A1, probe tazarotenic acid sulfoxide formation, ± standard error
[10] = read-out: CYP26B1 IC50, tazarotenic acid
[11] = substrate montelukast (HLM), ref [44]
[12] = CYP26A1 IC50, tazarotenic acid, recombinant CYP26A1, probe tazarotenic acid sulfoxide formation, ± standard error

SMILES	Cmax,u [2]	IC50 (CYP26B1; CYP26B1 IC50, tazarotenic acid)	IC50 (CYP26A1 [4]; [12])	fu,plasma [1]	Cmax [3]	IC50 (CYP2C8; [8])	IC50 (CYP26A1 [4]; [9])	IC50 (CYP26B1; [10])	further results
C#C[C@]1(O)CC[C@H]2[C@@H]3CCc4cc(O)ccc4[C@H]3CC[C@@]21C [17α-Ethynylestradiol]	0.00085 nM	–	–	0.002	0.5 nM	6540 ± 1220 nM	2240 ± 1330 nM	6730 ± 3770 nM	–
CC1(C)CCC(C)(C)c2cc(NC(=O)c3ccc(C(=O)O)cc3)ccc21 [AM80]	–	–	–	–	–	–	2890 ± 240 nM	9210 ± 830 nM	–
O=C(O)c1ccc2cc(-c3ccc(O)c(C45CC6CC(CC(C6)C4)C5)c3)ccc2c1 [CD437]	–	–	–	–	–	–	10 ± 10 nM	140 ± 50 nM	–
CCOc1nc2cccc(C(=O)O)c2n1Cc1ccc(-c2ccccc2-c2nnn[nH]2)cc1 [Candesartan]	0.38 nM	58300 nM	25600 ± 25800 nM	–	270 nM	36200 ± 1700 nM	–	–	–
CC1(C)CCC(C)(C)c2cc(C#Cc3ccc(C(=O)O)cc3)ccc21 [EC23]	–	–	–	–	–	–	1600 ± 740 nM	3450 ± 2800 nM	–
OC(Cn1cncn1)(Cn1cncn1)c1ccc(F)cc1F [Fluconazole]	30794 nM	19800 ± 3210 nM	700 ± 190 nM	–	34600 nM	–	–	–	Increase of AUC of orally administered retinoic acid [5]: 4 fold; Increase of Cmax of orally administered retinoic acid [5]: 6 fold; IC50 (CYP2C8; substrate amodiaquine, ref [50]): 48900 nM; Inhibition of CYP26A1-catalyzed 4-hydroxyretinoic acid formation (CYP26A1 [6]): not be inhibitors
CCC(C)n1ncn(-c2ccc(N3CCN(c4ccc(OCC5COC(Cn6cncn6)(c6ccc(Cl)cc6Cl)O5)cc4)CC3)cc2)c1=O (centres unmarked) [Itraconazole]	1.80 nM	160 ± 20 nM	550 ± 90 nM	–	919 nM	–	–	–	IC50 (CYP2C8; substrate paclitaxel, ref Unpublished Data): 2160 ± 410 nM
Clc1cccc(C(c2ccc3[nH]cnc3c2)n2ccnc2)c1 (centres unmarked) [Liarazole]	–	–	–	–	–	–	–	10 ± 10 nM	–
CC1(C)CCC(C)(C)c2cc(C3(c4ccc5cc(C(=O)O)ccc5c4)SCCS3)ccc21 [MM11253]	–	–	–	–	–	–	20 ± 10 nM	1250 ± 440 nM	–
C[C@@H]1C[C@H]2[C@@H]3CCC4=CC(=O)C=C[C@]4(C)[C@@]3(Cl)[C@@H](O)C[C@]2(C)[C@@]1(O)C(=O)CCl [Mometasone]	0.0005 nM	–	–	0.010	0.05 nM	813 ± 112 nM	900 ± 80 nM	6810 ± 1190 nM	–
O=c1c(O)c(-c2ccc(O)c(O)c2)oc2cc(O)cc(O)c12 [Quercetin]	0.45 nM	76200 ± 148000 nM	1920 ± 390 nM	0.009	50.9 nM	–	–	–	Inhibition of CYP26A1-catalyzed 4-hydroxyretinoic acid formation (CYP26A1 [6]): not be inhibitors
CC1(C)CCC(C)(C)c2cc(C3(c4ccc(C(=O)O)cc4)OCCO3)ccc21 [SR11237]	–	–	–	–	–	–	810 ± 340 nM	6860 ± 460 nM	–
CCC(CC)C(c1ccc(Nc2nc3ccccc3s2)cc1)n1cncn1 (centres unmarked) [Talarazole]	–	–	–	–	–	–	20 ± 10 nM	1 ± 1 nM	–
COc1cc(C(=O)NS(=O)(=O)c2ccccc2C)ccc1Cc1cn(C)c2ccc(NC(=O)OC3CCCC3)cc12 [Zafirlukast]	3.00 nM	710 ± 230 nM	60 ± 20 nM	0.010	1120 nM	644 ± 273 nM	–	–	Binding mechanism, CYP26A1 (CYP26A1 [7]): No binding spectra could be obtained; Selectivity for CYP26A1 (versus CYP26B1) (CYP26A1 [4]; ratio of IC50 values, tazarotenic acid probe): 11.8 fold

Further lines, with some results ahead:

Cmax,u [2]	IC50 (CYP26B1; CYP26B1 IC50, tazarotenic acid)	IC50 (CYP26A1 [4]; [12])	SMILES	fu,plasma [1]	Cmax [3]	IC50 (CYP2C8; [8])	IC50 (CYP26A1 [4]; [9])	IC50 (CYP26B1; [10])	further results
92.4 nM	7570 ± 4930 nM	–	CCc1oc2ccccc2c1C(=O)c1cc(Br)c(O)c(Br)c1 [Benzbromarone]	0.010	9240 nM	–	–	–	IC50 (CYP2C8; [11]): 380 nM; IC50 (CYP26A1 [4]): 630 ± 60 nM
–	1600 ± 270 nM	–	C=C(c1ccc(C(=O)O)cc1)c1cc2c(cc1C)C(C)(C)CCC2(C)C [Bexarotene]	–	–	–	–	–	IC50 (CYP26A1 [4]): 1310 ± 480 nM
8.90 nM	610 ± 90 nM	120 ± 20 nM	CC(C)(O)c1ccccc1CC[C@@H](SCC1(CC(=O)O)CC1)c1cccc(/C=C/c2ccc3ccc(Cl)cc3n2)c1 [Montelukast]	–	925 nM	–	–	–	–
38.0 nM	8480 ± 1190 nM	930 ± 260 nM	CCc1ccc(CCOc2ccc(CC3SC(=O)NC3=O)cc2)nc1 (centres unmarked) [Pioglitazone]	–	4490 nM	11700 ± 4000 nM	–	–	–
0.50 nM	3280 ± 1150 nM	1780 ± 770 nM	O=C(c1ccc(OCCN2CCCCC2)cc1)c1c(-c2ccc(O)cc2)sc2cc(O)ccc12 [Raloxifene]	0.050	1.05 nM	2150 ± 900 nM	–	–	–
2.60 nM	610 ± 250 nM	7730 ± 2690 nM	CCOc1cc(CC(=O)N[C@@H](CC(C)C)c2ccccc2N2CCCCC2)ccc1C(=O)O [Repaglinide]	0.026	104 nM	–	–	–	IC50 (CYP2C8; [11]): 11100 nM
150 nM	–	–	CC(C)c1nc(CN(C)C(=O)N[C@H](C(=O)N[C@@H](Cc2ccccc2)C[C@H](O)[C@H](Cc2ccccc2)NC(=O)OCc2cncs2)C(C)C)cs1 [Ritonavir]	–	15300 nM	–	–	–	–
3.40 nM	8470 ± 6640 nM	11900 ± 1020 nM	CN(CCOc1ccc(CC2SC(=O)NC2=O)cc1)c1ccccn1 (centres unmarked) [Rosiglitazone]	0.002	1670 nM	10800 ± 3100 nM	–	–	–
6.40 nM	14000 ± 1110 nM	21400 ± 20300 nM	CC/C(=C(\c1ccccc1)c1ccc(OCCN(C)C)cc1)c1ccccc1 [Tamoxifen]	0.020	323 nM	3340 ± 1550 nM	–	–	Inhibition of CYP26A1-catalyzed 4-hydroxyretinoic acid formation (CYP26A1 [6]): not be inhibitors
